PubChem BioAssay (NCI)
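96-well plates; 48 h exposure; 5 concentrations. Endpoints by linear interpolation between flanking doses. Not reached: highest tested concentration assigned. Abbreviation: GI50, concentration required for 50% inhibition of growth. TGI is the concentration that stops growth completely.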

Columns and labels:
Assay in all cases: NCI-60 cell line screen, 48 h
MCF7 breast = tested on: MCF7 breast
OVCAR-8 ovarian = tested on: OVCAR-8 ovarian
NCI-H23 lung = tested on: NCI-H23 lung
HCT-116 colon = tested on: HCT-116 colon
786-0 renal = tested on: 786-0 renal
HCC-2998 colon = tested on: HCC-2998 colon
NCI-H460 lung = tested on: NCI-H460 lung
SF-268 CNS = tested on: SF-268 CNS
SK-MEL-2 melanoma = tested on: SK-MEL-2 melanoma
MOLT-4 leukemia = tested on: MOLT-4 leukemia

SMILES | GI50 (MCF7 breast) [µM] | TGI (MCF7 breast) [µM] | GI50 (OVCAR-8 ovarian) [µM] | TGI (OVCAR-8 ovarian) [µM] | GI50 (NCI-H23 lung) [µM] | TGI (NCI-H23 lung) [µM] | GI50 (HCT-116 colon) [µM] | TGI (HCT-116 colon) [µM] | GI50 (786-0 renal) [µM] | TGI (786-0 renal) [µM] | GI50 (HCC-2998 colon) [µM] | TGI (HCC-2998 colon) [µM] | GI50 (NCI-H460 lung) [µM] | TGI (NCI-H460 lung) [µM] | GI50 (SF-268 CNS) [µM] | TGI (SF-268 CNS) [µM] | TGI (SK-MEL-2 melanoma) [µM] | GI50 (MOLT-4 leukemia) [µM] | TGI (MOLT-4 leukemia) [µM] | GI50 (SK-MEL-2 melanoma) [µM]
Cc1cc(N(CCOS(C)(=O)=O)CCOS(C)(=O)=O)ccc1C(=O)O | 87.4 | > 100 | > 100 | > 100 | 98.2 | > 100 | > 100 | > 100 | > 100 | > 100 | > 100 | > 100 | 87.6 | > 100 | > 100 | > 100 |  |  |  | 
CN1Cc2ccccc2/C=C\c2ccccc21 |  | 67.9 |  | > 100 |  | > 100 |  | > 100 |  | > 100 |  | > 100 |  | > 100 |  | > 100 | 80.2 |  |  | 
CS(=O)(=O)c1ccc(Nc2nc(N[C@H]3CCCC[C@H]3N)nc3cc[nH]c(=O)c23)cc1 | 0.326 | 13.4 | 2.68 | 20.3 | 1.58 | 6.01 | 0.615 | 16.8 | 3.28 | 20.6 | 1.52 | 4.49 | 2.62 | 11.5 | 1.33 | 4.26 |  | 2.95 | 17.5 | 
CSc1cnc2ccccc2c1Sc1c[nH]c2ccccc2c1=O |  |  |  | 34.4 |  | 36.7 |  | 28.7 |  | 34.8 |  | 29.5 |  | 22.8 |  | > 100 | 34.6 |  | > 44.7 | 
CCC[CH2][Sn]([CH2]CCC)([S]C#N)[S]C#N |  |  | 1.53 | 3.54 | 0.609 | 2.14 | 1.45 | 3.11 | 1.2 | 2.49 | 1.15 | 2.39 | 2.14 | 4.96 | 0.802 | 2.26 | 1.68 | 0.462 | 3.23 | 0.457
CCC(C)CC(C)CC(C)/C=C(\C)C1=C(C)CC(C)(O)O1 (stereo not drawn) |  |  |  | > 100 |  | > 100 |  | > 100 |  | > 100 |  | > 100 |  | > 100 |  |  |  |  | > 100 | 
N#Cc1ccccc1NC(=O)C(=O)C1NC(=S)NC1=O (stereo not drawn) |  |  |  | > 100 |  | > 100 |  | > 100 |  | > 100 |  | > 100 |  | > 100 |  | > 100 |  |  | > 100 | 
COc1ccc2oc3c(OC)c(OC)c(OC)cc3c(=O)c2c1 |  |  |  | > 100 |  | > 100 |  | > 100 |  | > 100 |  | > 100 |  | > 100 |  | > 100 | > 100 |  | > 100 | 
c1ccc(OCCC[P+](c2ccccc2)(c2ccccc2)c2ccccc2)cc1 | 0.677 | 10.3 | 1.83 | 12.8 | 1.81 | 10.9 | 1.42 | 13.4 | 4.14 | 20 |  |  | 2.79 | 13.5 | 3.82 | 19.2 | 4.88 | 3.12 | 13.7 | 1.56
Cc1ccc(NC(=O)C(=O)CC(=O)c2c(C)n([O-])c3ccccc3[n+]2=O)cc1C |  |  |  | > 100 |  | > 100 |  | > 100 |  | > 100 |  | > 100 |  | > 100 |  | > 100 | > 100 |  |  | 
C1CCCCc2nc3c(nc2CCC1)c1nc2c(nc1c1nc4c(nc31)CCCCCCCC4)CCCCCCCC2 |  |  |  | > 100 |  | > 100 |  | > 100 |  | > 100 |  | > 100 |  | > 100 |  | > 100 | > 100 |  | > 100 | 
COc1ccc(C2=Nc3ccccc3SC(C)C2)cc1OC (stereo not drawn) |  |  |  | 43.8 |  | 38.5 |  | 32.1 |  | 30.2 |  | 32.6 |  | 36.3 |  | 43.5 | 72.2 |  | 34.8 | 
COc1cc2c(c(OC)c1OC)-c1ccc(SC)c(=O)cc1[C@@H](NCc1ccc([N+](=O)[O-])cc1)CC2 |  |  |  |  |  |  |  |  |  | > 100 |  | 0.0105 |  |  |  |  | 19 |  | > 100 | 
CCCCCCCC1(c2ccc(N)cc2)CCC(=O)NC1=O (stereo not drawn) |  |  |  | > 100 |  | > 100 |  |  |  | > 100 |  | > 100 |  | > 100 |  | > 100 | > 100 |  | 65.7 | 
COc1ccc(C)cc(=O)c1O |  |  |  |  |  | > 100 |  | > 100 |  | > 100 |  |  |  | > 100 |  | > 100 | > 100 |  | > 100 | 
O=[N+]([O-])c1ccc(Cl)c(CNc2ncnc3c2ncn3C2CCCCO2)c1 (stereo not drawn) |  | 62 |  | > 100 |  | > 100 |  | > 100 |  | > 100 |  |  |  | 52.2 |  | > 100 | > 100 |  | 88.2 | 
CCN(CC)CC1CCCCN1CC(=O)N1CC(C)C(=O)Nc2ccccc21 (stereo not drawn) |  |  |  |  |  | > 100 |  | > 100 |  | > 100 |  | > 100 |  | > 100 |  | > 100 |  |  | > 100 | 
COc1cc(/C=C/c2ccc(O)c(OC)c2)cc(OC)c1 |  | > 100 |  | > 100 |  | > 100 |  | > 100 |  | > 100 |  | > 100 |  | 52.5 |  | > 100 |  |  | > 100 | 
CC1=C(SC#N)S(=O)(=O)N(c2ccccc2)C(C)=C1SC#N |  |  |  | > 100 |  | > 100 |  | 69.8 |  | > 100 |  | > 100 |  | > 100 |  | > 100 | > 100 |  | 57.8 | 
COc1ccc(-c2ccc(/C=N/n3c(COc4ccccc4Cl)nn(CN4CCOCC4)c3=S)o2)c([N+](=O)[O-])c1 | 19.4 | 47.4 | 39.4 | > 100 | 22.9 | 62.7 | 19.6 | 41.1 | 34.4 | > 100 | 24.1 | 56.8 | 19.8 | 49 | 24 | 63.4 |  | 19.3 | 51.7 | 
CCOC(=O)C(Cc1ccc(N(CCCl)CCCl)cc1)NC(=O)C(Cc1ccccc1)NC=O (stereo not drawn) |  | 0.502 |  | 0.527 |  | 0.399 |  | 0.535 |  | 0.303 |  |  |  | 0.604 |  | 0.299 | 0.989 |  | 0.161 | 
